Consider two compounds from patent US7799805B2, “Piperidine carboxylic acid amide derivatives” (Actelion Pharmaceuticals Ltd., priority 2005, dated 2010).

The structures appear in SMILES notation.

In this experiment the target is T1, recombinant human renin (Homo sapiens, UniProt P00797).
T1 sequence (P00797 67-406): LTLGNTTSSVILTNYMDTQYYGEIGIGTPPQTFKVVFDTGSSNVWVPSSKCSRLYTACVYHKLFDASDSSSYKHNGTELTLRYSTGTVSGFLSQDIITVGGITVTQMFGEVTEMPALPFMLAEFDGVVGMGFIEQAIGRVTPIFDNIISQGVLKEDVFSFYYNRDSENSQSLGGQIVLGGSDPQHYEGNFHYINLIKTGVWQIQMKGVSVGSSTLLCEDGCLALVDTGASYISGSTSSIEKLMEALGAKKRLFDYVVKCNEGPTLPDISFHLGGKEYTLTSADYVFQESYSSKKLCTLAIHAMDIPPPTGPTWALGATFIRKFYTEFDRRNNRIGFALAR
The experiment can be described thus: Primary renin inhibition assay: IC50 in buffer, 384 well MTP (AngI quantified by EIA).

Experimental: Enzyme Immuno Assay (EIA) to Estimate AngI Accumulation and Renin Inhibition
96 well MTP (MaxiSorp™, Nunc) were coated with 200 μl conjugate and blocked with 250 μl blocking solution as above, except that the blocking solution contained 3% BSA.
1.3 AngI-EIA in 384 well MTP
The AngI (1-10)/BSA coated MTP were washed 3 times with wash buffer (PBS 1×, 0.01% Tween 20) and filled with 75 μl of primary antibody solution (anti-AngI antiserum, pre-diluted 1:10 in horse serum), diluted to a final concentration of 1:100,000 in assay buffer (PBS 1×, 1 mM EDTA, 0.1% BSA, pH 7.4). 5 μl of the renin reaction (or standards in assay buffer) (see below) were added to the primary antibody solution and the plates were incubated overnight at 4° C. After the incubation the plates were washed 3 times with wash buffer and incubated with secondary antibody [anti-rabbit IgG, linked to horseradish peroxidase (Amersham Bioscience, NA 934V), diluted 1:2,000 in wash buffer] for 2 h at rt. […]
In the second step, the accumulated AngI is measured by an immunological assay (enzyme immuno assay, EIA). […]
Test compounds were dissolved and diluted in 100% DMSO and 2.5 μl added to the premix, then incubated at 37° C. for 3 h. At the end of the incubation period, 5 μl of the renin reaction (or standards in assay buffer) were transferred into EIA assays (as described above) and AngI produced by renin was quantified.

On to `O=C([C@H]1[C@H]2CNC[C@@H](C[C@H]1c1ccc(CCCOc3c(F)ccc(F)c3Cl)cc1)N2)N(Cc1cccc(Cl)c1Cl)C1CC1` (racemic) [Example 1, (rac.)-(1R*,5S*,6R*,7R*)-7-{4-[3-(2-Chloro-3,6-difluoro-phenoxy)-propyl]-phenyl}-3,9-diaza-bicyclo[3.3.1]nonane-6-carboxylic acid cyclopropyl-(2,3-dichloro-benzyl)-amide], for which the IC50 came to 0.65 nM.
Consider `O=C([C@@H]1[C@@H](c2ccc(CCCOc3c(F)ccc(F)c3Cl)cc2)C[C@@H]2CNC[C@H]1N2)N(Cc1cccc(Cl)c1Cl)C1CC1` (racemic) [Example 2, (rac.)-(1R*,5S*,6R*,7S*)-7-{4-[3-(2-Chloro-3,6-difluoro-phenoxy)-propyl]-phenyl}-3,9-diaza-bicyclo[3.3.1]nonane-6-carboxylic acid cyclopropyl-(2,3-dichloro-benzyl)-amide], for which the IC50 was determined as 0.19 nM.

One may read the IC50 as the concentration that inhibits the measured activity by half.
